We go through one molecule from patent publication US11459313B2, “Aziridinyl and amino dimeric naphthoquinone compounds and use for acute myeloid leukemia” (University of Maryland, Baltimore, priority 2016, dated 2022).

This experiment deals with MOLM-14 cells. The experiment can be described thus: Clonogenic assay, MOLM-14. In kind it is cell-based, human. As to conditions: 24 hours exposure, then methylcellulose; p<0.05 at 1, 10 and 100 μM. The method, then: MOLM-14 and THP-1 were treated with either DMSO control or mono-aziridine dimeric naphthoquinone or bis-aziridinyl dimeric naphthoquinone compounds at concentrations of 0.1, 1, 10 and 100 μM (micromolar) for 24 hours. The cells then were washed with growth medium and resuspended in growth medium and methylcellulose with or without DMSO or the treatment compounds. After 7 or 13 days (MOLM-14 or THP-1, respectively), treatment was terminated by addition of 1.0 mg/mL, iodonitrotetrazolium chloride (INT; Sigma Aldrich®) and read 24 hours later with an automated colony counter (Symbiosis®). Data were analyzed and graphed using GraphPad Prism® software.
Next, the effect of bis-aziridinyl-dimeric naphthoquinone Compound 101 on AML cell survival and viability. […] For colony formation assays, cell lines were treated with the indicated doses of aziridinyl dimeric naphthoquinone Compound 101 for 24 hours, and subsequently washed and plated in methylcellulose to observe clonogenic potential after 7-10 days. See above for additional comments on the methods.
Clonogenic inhibition was […] when bis-aziridinyl dimeric naphthoquinone was removed from cells after 24 hours of treatment. The bis-aziridinyl dimeric naphthoquinone was able to reduce clonogenicity with just a 24-hour exposure prior to plating.

Each structure is given as a SMILES string. Entries after “also recorded” stand apart in the source; their conditions may differ.

For the molecule `O=C1C(C2=C(N3CC3)C(=O)c3ccccc3C2=O)=C(N2CC2)C(=O)c2ccccc21` [Compound 101, 3,3′-di(aziridin-1-yl)-[2,2′-binaphthalene]-1,1 4,4′-tetrone], the “clonogenic activity (colony formation), MOLM-14” value is listed as “marked reduction in clonogenic activity; also recorded: inhibits clonogenicity”.
